What all share (format): cell-based
Assay [1] has as its system Malassezia furfur. Briefly: Growth inhibition of Malassezia furfur with equal concentrations (% by weight) of P18, Zincpyrithione, Climbazole and Ketoconazole, CFU. The settings on record: for colony-forming units: 50 μM final conc., mean ± SD. The method, then:
(§1) Growth medium: M472-Pityrosporum medium according to DSMZ
(§2) The components were sterilized at 121° C., 1 bar superatmospheric pressure for 20 minutes.
(§3) 2 g/L of olive oil (sterilized by filtration and, after autoclaving, added to the other components)
(§4) Since it was a two-phase medium, the complete medium was treated with sonication in order to enlarge the phase boundary.
(§5) For agar plates, if appropriate, 150 g/L of agar agar were added to the medium.
(§6) The growth test was carried out as follows: A shake flask with M472-Pityrosporum medium was inoculated with M. furfur and incubated with shaking overnight at 30° C. and 200 rpm.
A 96-well microtiter plate was filled with in each case 100 μl of M472-Pityrosporum medium and inoculated with M. furfur suspension of the overnight culture. The M. furfur suspension was adjusted at the start of the experiment to an optical density, measured at 600 nm, of 0.02. The concentrates of the inhibitor solutions were 1 mM in DMSO for the peptide P18 and 10 mM in DMSO for Zincpyrithione, Ketoconazole and Climbazole. The DMSO final concentrations were maintained the same in all experiments. This means that a corresponding volume of DMSO was added to the mixture in the case of a higher concentration of Zincpyrithione, Ketoconazole or Climbazole concentrate in order to ensure comparability to the mixtures containing P18.
(§7) The growth of the following batches was compared by measuring the optical density:
M. furfur suspension and addition of P18 solution with a final concentration of 50 μM (equal to 0.0115% (w/w))
M furfur suspension and addition of Zincpyrithione (ZPT) solution with a final concentration of 362 μM (comparison to the mixture containing 50 μM of the peptide P18)
M furfur suspension and addition of Ketoconazole solution with a final concentration of 216 μM (comparison to the mixture containing 50 μM of the peptide P18)
M furfur suspension and addition of Climbazole solution with a final concentration of 390 μM (comparison to the mixture containing 50 μM of the peptide P18)
(§8) The microtiter plate was incubated with shaking at 30° C.
After 24 hours of incubation, the colony-forming units (CFU) were determined by plating out 10 μl of medium from each of the suspensions on agar plates. After incubation for 6 days, the colonies on the plates were counted. The CFU was determined in order to exclude an influence of the two-phase medium and also the growth form of M. furfur on the optical density. The experiments were carried out in at least two independent experiments, each with double determination.

Assay [2] concerns Malassezia furfur. Put plainly: Inhibition of Malassezia furfur growth test (optical density and colony-forming units), Examples 1 and 2. The settings on record: for colony-forming units: 10 μl plated out. The method, then:
Growth medium: M472-Pitysporum medium according to DSMZ
as §2
2 g/l of olive oil were sterilized by filtration and, after autoclaving, added to the other components.
as §4
For agar plates, if appropriate, […] of agar agar were added to the medium.
The growth test was carried out as follows: A shake flask with M472-Pitysporum medium was inoculated with M. furfur and incubated with shaking overnight at 30° C. and 200 rpm.
A 96-well microtiter plate was filled with in each case 100 μl of M472-Pitysporum medium and inoculated with M. furfur suspension of the overnight culture. The M. furfur suspension was adjusted at the start of the experiment to an optical density, measured at 620 nm, of 0.02. The concentrates of the inhibitor solutions were 1 mM in water or DMSO.
as §7
M. furfur suspension without the addition of an inhibitor.
This was to exclude that an inhibition is attributable merely to the effect of the DMSO, or a false positive result being observed.
M. furfur suspension and addition of an aqueous P18 solution with a final concentration of 25 μM.
M. furfur suspension and addition of a P18 solution in DMSO with a final concentration of 25 μM.
M. furfur suspension and addition of a zinc pyrithione (ZPT, Sigma-Aldrich) solution in DMSO with a final concentration of 25 μM.
M. furfur suspension and addition of a Ketoconazole (Sigma-Aldrich) solution in DMSO with a final concentration of 25 μM.
as §8
[…] The colony-forming units (CFU) were then determined by plating out 10 μl from each of the suspensions and, after incubation for 6 days, counting the colonies. The CFU was determined in order to exclude an influence of the two-phase medium and also the growth form of M. furfur on the optical density. […] The experiments were carried out at least in triple determinations and independently repeated.
For this, the procedure was as described in Example 1. 1 mM stock solutions of the fusion peptide P18, magainin 2 and cecropin A in DMSO were prepared. The final concentrations of the peptides in the growth experiments were 25 μM. The same amount of DMSO was likewise added to the suspension without inhibitor in order to exclude a growth-inhibiting effect of the DMSO.
The growth of the following mixtures was compared by measuring the optical density:
This was to exclude that an inhibition is attributable merely to the effect of the DMSO.
M. furfur suspension and addition of a magainin 2 solution in DMSO with a final concentration of 25 μM.
M. furfur suspension and addition of a cecropin A solution in DMSO with a final concentration of 25 μM.
M. furfur suspension and addition of a peptide P18 (SEQ ID NO3) solution in DMSO with a final concentration of 25 μM.

In assay [3] the test system is Malassezia furfur. Briefly: Effect of P18 variants against M. furfur, CFU after 24 hours at 50 μM. As to the method:
The inhibitory effect of the following P18 variants against M. furfur was analyzed:
The experiments were carried out as follows:
as §1, §2, §3, §4, §5, §6
A 96-well microtiter plate was filled with in each case 100 μl of M472-Pityrosporum medium and inoculated with M. furfur suspension of the overnight culture. The M. furfur suspension was adjusted at the start of the experiment to an optical density, measured at 600 nm, of 0.1. […]
After 24 hours, the colony-forming units (CFU were determined by plating out 10 μl from each of the suspensions and, after incubation for 6 days, counting the colonies. Two independent experiments with in each case three identical mixtures were carried out and the number of colony-forming units was averaged.

[4] abbreviates: aqueous solution, 25 μM, incubation time 16 h.
Setting [5] is: aqueous solution, 25 μM, incubation time 24 h.
Setting [6] is: aqueous solution, 25 μM, incubation time 40 h.
The mark [7] stands for this setting: solution in DMSO, 25 μM, incubation time 16 h.
[8] abbreviates: solution in DMSO, 25 μM, incubation time 24 h.
The mark [9] stands for this setting: solution in DMSO, 25 μM, incubation time 40 h.

Ends that are not written are not given here.

With “KWKLFKKIPKFLHLAKKF-NH2 [P18, KWKLFKKIPKFLHLAKKF-NH2]”, in the assay with Malassezia furfur [1] (50 μM (0.0115% (w/w)), equal % by weight, 24 hours), the “reduction of CFU compared to reference substances” value was “more effectively than the reference substances Zincpyrithione, Climbazole and Ketoconazole”. In addition, the colony-forming units is on record as 1 ± 1 in the assay with Malassezia furfur [1] (incubation time 24 h); 0 ± 0 with Malassezia furfur [1] (incubation time 40 h); 62 in the assay with Malassezia furfur [2] (setting [4]); 41 with Malassezia furfur [2] (setting [5]); 120 in the assay with Malassezia furfur [2] (setting [6]); 8 in the assay on Malassezia furfur [2] (setting [7]). In addition, the colony-forming units in the assay on Malassezia furfur [2] (setting [8]) and in the assay with Malassezia furfur [2] (setting [9]) was 0 throughout. The “inhibition of the growth of M. furfur compared to magainin 2 or cecropin A” value in the assay on Malassezia furfur [2] (25 μM in DMSO) is “more effectively than magainin 2 or cecropin A alone”. Further, the “growth of M. furfur (in words)” value in the assay on Malassezia furfur [2] (25 μM, observed time period up to 40 hours) is “effectively inhibited”. In addition, the optical density is 0 in the assay on Malassezia furfur [2] (aqueous solution, 25 μM, incubation time 0 h); 0 with Malassezia furfur [2] (setting [4]); 0 in the assay with Malassezia furfur [2] (setting [5]); 0 in the assay with Malassezia furfur [2] (setting [6]); 0 with Malassezia furfur [2] (solution in DMSO, 25 μM, incubation time 0 h); 0 in the assay on Malassezia furfur [2] (setting [7]). Moreover, the optical density with Malassezia furfur [2] (setting [8]) and in the assay with Malassezia furfur [2] (setting [9]) was 0 throughout. The CFU in the assay on Malassezia furfur [2] (solution in DMSO, 25 μM, incubation time 64 h) was found to be 0; with Malassezia furfur [2] (solution in DMSO, 25 μM, incubation time 72 h) it was 23. Further, the “Averaged number of colony-forming units (CFU)” value in the assay with Malassezia furfur [3] (50 μM peptide in DMSO) worked out at 0. Further, in the assay on Malassezia furfur [3] (50 μM, effectiveness increasing in the order P18AC-OH, P18-OH, P18), the “inhibitory effect against M. furfur compared to DMSO” value is given as “increased inhibitory effect against M. furfur as compared to DMSO”.
